Test results taken from patent publication US9879013B2, “Purinone derivative” (ONO PHARMACEUTICAL CO., LTD., priority 2010, dated 2018).

Assays:
Human CYP2C8 = Human CYP2C8 (Homo sapiens (Human), UniProt P10632); test: Inhibitory action on human CYP2C8; type: in vitro ADME
Method: (§1) Measurement of the Inhibitory Activity on Drug-Metabolizing Enzymes (Inhibitory Action on Human CYP2C8 and Human CYP2C19)
The reaction was carried out in a 96-well plate. […] 100 μL of this reaction mixture and 50 μL of the test compound prepared as described above and the positive control solution prepared as described above were dispensed into each well and pre-incubation was carried out at 10 minutes for 37° C. The reaction was started by the addition of 50 μL NADPH solution (final concentration=1 mmol/L) and incubation was carried out for 30 minutes at 37° C.

Lck = Lck (Homo sapiens (Human), UniProt P06239); test: Lck inhibitory activity, selectivity for Btk (Z'-LYTE kinase assay); type: biochemical; conditions: ratio of the IC50 values of the individual kinases
Method: (§2) The inhibitory activity for other kinases (for example, Lck, Fyn, and LynA (all from Invitrogen Corporation) was measured in the same manner as described above using the particular kinase in place of the Btk.

[1] = test system: T cells (CD3-positive CD20-negative cells) of human PBMC; test: T cell activation using human PBMC (CD69-positive signal, FACS); type: cell-based; conditions: anti-CD3/CD28 antibody beads, 16 hours
Method: (§3) Measurement of B Cell Activation or T Cell Activation Using Human PBMC
(§4) A 10 mmol/L solution of the test compound in DMSO was dispensed into a 96-well plate (Nunc) and a 5× dilution series was prepared using DMSO. A 100× concentration test compound dilution solution was prepared by an additional 10× dilution with RPMI1640 medium (contained 10% HI-FBS, 1% penicillin). Human peripheral blood mononuclear cells (PBMC) were diluted with the medium to provide a density of 2×10^6 cells/mL. 396 μL of the cell suspension was added to a 96-well plate into which 4 μL of the 100× concentration test compound dilution solution or the solvent (10% DMSO) had already been introduced and incubation was performed for 10 minutes at 37° C. and 5% CO2. 10 μL of an anti-IgM antibody (Southern Biotech)/IL-4 (R & D Systems) solution or an anti-CD3/CD28 antibody bead suspension (Invitrogen Corporation) was added to a 96-well plate and 90 μL of the cell suspension prepared as described above was also added (final concentrations: anti-IgM antibody=1 μg/mL, IL-4=3 ng/mL, and anti-CD3/CD28 antibody beads=2×10^6 beads/mL). 10 μL of the medium was added to the unstimulated sample wells in place of these stimulating substances, and standing at 37° C. and 5% CO2 was again performed. Incubation was carried out for 16 hours in the case of the evaluation of T cell activation and for 22 hours in the case of the evaluation of B cell activation. 100 μL Cytofix Buffer (BD Biosciences) was added; holding for 15 minutes at 37° C. was performed; centrifugation for 10 minutes at 1500 rpm was carried out; and the supernatant was removed. 200 μL of Perm buffer II (BD Biosciences) at −20° C. was added; holding for 30 minutes on ice was performed; centrifugation for 10 minutes at 1500 rpm was carried out; and the supernatant was removed. 0.5 mL Stain buffer (BD Biosciences) was added and centrifugation was carried out for 10 minutes at 1500 rpm. 100 μL of a mixed antibody solution was added and incubation was performed for 30 minutes on ice in the dark. The antibody was the 10× dilution with Stain Buffer of the 1:1:1 mixture of PerCP-labeled anti-CD3 antibody (BD Biosciences), AF488-labeled anti-CD20 antibody (BD Biosciences), and PE-labeled anti-CD69 antibody (BD Biosciences). 0.4 mL Stain Buffer was added and the supernatant was removed. […] The CD69-positive signal (average fluorescence intensity) of the CD20-positive CD3-negative cells (B cells) or CD3-positive CD20-negative cells (T cells) was measured. After subtracting the value for the unstimulated sample, the % inhibition with reference to the value for the stimulated control sample was determined. The % inhibition was graphically plotted using Prism (ver. 5.01 J, GraphPad Software) and the IC50 value was determined.

LynA = LynA (Homo sapiens (Human), UniProt P07948); test: LynA inhibitory activity, selectivity for Btk (Z'-LYTE kinase assay); type: biochemical; conditions: ratio of the IC50 values of the individual kinases
Method: as §2

Btk = Btk (Homo sapiens (Human), UniProt Q06187); test: Btk enzyme inhibitory activity (Z'-LYTE Kinase Assay Kit-Tyr1 peptide); type: biochemical; conditions: Tyr-1 peptide 4 μM, Btk 5 nM, ATP 36 μM, 1 hour at 30° C.
Method: The Btk enzyme inhibitory activity was measured, based on the protocol provided by the manufacturer, using Btk (Invitrogen Corporation) and the Z′-LYTE® Kinase Assay Kit-Tyr1 peptide (Invitrogen Corporation), which contained the following reagents: Tyr-1 peptide, Thy-1 phosphopeptide, 5× kinase buffer, ATP, development reagent B, development buffer, and stop reagent.
5 μL/well of a solution of the test compound diluted with dimethyl sulfoxide (DMSO), or DMSO, and 10 μL/well of the substrate/enzyme mixture solution were dispensed to a 96-well assay plate and a reaction was carried out for 20 minutes at 30° C. […] The enzymatic reaction was then stopped by adding 10 μL of the stop solution.
The percent inhibition (%) by the test compound was calculated using the following equation. percent inhibition (%) of phosphorylation=1−{(AC−AX)/(AC−AB)}×100 [E1]

Human CYP2C19 = Human CYP2C19 (Homo sapiens (Human), UniProt P33261); test: Inhibitory action on human CYP2C19; type: in vitro ADME
Method: as §1
The reaction was carried out in a 96-well plate. The positive control substances (CYP2C8: ketoconazole, CYP2C19: tranylcypromine) were adjusted (CYP2C8: 0.6 and 6 mmol/L, CYP2C19: 0.9 and 9 mmol/L) with DMSO to concentrations that were 300 times the final concentration, and solutions were prepared (CYP2C8: 8 and 80 μmol/L, CYP2C19: 12 and 120 μmol/L) by 75× dilution with purified water that contained 2.7% acetonitrile. The test compounds were adjusted to […] with DMSO and were adjusted to 4 and 40 μmol/L by 75× dilution with purified water that contained 2.7% acetonitrile. A reaction mixture was then prepared (the numerical values are final concentrations) by the addition of potassium phosphate buffer (pH 7.4), magnesium chloride ([…]), substrate (CYP2C8: dibenzylfluorescein 1 μmol/L, CYP2C19: 3-cyano-7-ethoxycoumarin 25 μmol/L), and E. coli-expressed liver microsome CYP2C8 (Cypex, 10 pmol/L) and CYP2C19 (Cypex, 3 pmol/L). 100 μL of this reaction mixture and 50 μL of the test compound prepared as described above and the positive control solution prepared as described above were dispensed into each well and pre-incubation was carried out at 10 minutes for 37° C. The reaction was started by the addition of 50 μL NADPH solution (final concentration=1 mmol/L) and incubation was carried out for 30 minutes at 37° C. The fluorescence intensity was measured (CYP2C8: excitation wavelength=485 nm, fluorescence wavelength=538 nm; CYP2C19: excitation wavelength=409 nm, fluorescence wavelength=460 nm) immediately after the addition of the NADPH and after incubation for 30 minutes.

Fyn = Fyn (Homo sapiens (Human), UniProt P06241); test: Fyn inhibitory activity, selectivity for Btk (Z'-LYTE kinase assay); type: biochemical; conditions: ratio of the IC50 values of the individual kinases
Method: as §2

[2] = test system: B cells (CD20-positive CD3-negative cells) of human PBMC; test: B cell activation using human PBMC (CD69-positive signal, FACS); type: cell-based; conditions: anti-IgM antibody 1 μg/mL / IL-4 3 ng/mL, 22 hours
Method: as §3, §4

Human liver cells [3] = test: Ability to reduce the mitochondrial membrane potential in cultured human hepatoma cells (JC-1); type: cell-based; conditions: JC-1, exposure for 24 hours, read-out: Ability to lower the mitochondrial membrane potential (IC50 (μM))
Description: (§5) Measurement of the Cytotoxicity and Ability to Reduce the Mitochondrial Membrane Potential in Cultured Human Hepatoma Cells
Tissue that maintains an aerobic equilibrium, e.g., the kidneys and heart, and tissue that is exposed to high drug concentrations and carries out drug metabolism, e.g., the liver, are known to be sensitive to mitochondrial dysfunction (Drug Discovery Today, 12 (17-18), 777-785, 2007). The reduction or extinction of the mitochondrial membrane potential by a drug is caused by the direct inhibition of the electron transport system, decoupling of electron transport from ATP synthase, or the opening of a mitochondrial membrane permeability transition pore. As a consequence, measurement of the mitochondrial membrane potential of liver cells can provide a parameter for hepatotoxicity.
(§6) Human liver cells were seeded into a collagen-coated 96-well plate at a cell density of 30,000 cells/well and incubation was carried out overnight in an incubator at 37° C. in 5% CO2-95% air. The cultured cells were stained for 1 hour with 5,5′,6,6′-tetrahydro-1,1′,3,3′-tetramethyl-benzamidazolocarbocyanine iodide (JC-1) followed by treatment with the test compound. The test compound was dissolved in DMSO and then diluted with the liquid culture medium Hepatocyte Culture Medium (HCM) and added to the cells. The test compound treatment concentrations were 0, 6.25, 12.5, 25, 50, 100, 200, and 400 μmol/L. After exposure to the test compound for 24 hours, measurement was performed with a SpectraMax plate reader (Molecular Devices, LLC) at an excitation wavelength of 485 nm and a fluorescence wavelength of 538 nm and an excitation wavelength of 544 nm and a fluorescence wavelength of 590 nm. The membrane potential was determined by the ratio between the 544 nm/590 nm measurement value and the 485 nm/538 nm measurement value. After this, the ATP concentration in the cells was measured using a Celltiter Glo luminescent assay kit (Promega Corporation) in order to evaluate the cell toxicity of the test compound. The cells were lysed by the assay buffer provided with the measurement kit and the concentration of the ATP released from the cells was measured using the luciferin-luciferase enzyme activity as the index. The emission was measured using a SpectraMax plate reader. […] The ability to lower the mitochondrial membrane potential of the test compounds and the cytotoxicity of the test compounds are given in Table 3 below.

Human liver cells [4] = test: Cytotoxicity in cultured human hepatoma cells (ATP concentration, Celltiter Glo); type: cell-based; conditions: 50% decline in ATP concentration, exposure for 24 hours, read-out: Toxicity for human liver cells (IC50 (μM))
Method: as §5, §6

[5] = Stability in the rat liver microsome; conditions: 0.5 mg/mL microsomes, NADPH, 15 minutes at 37° C.
Method: (§7) Evaluation of the Stability in the Rat and Human Liver Microsome
(§8) A 0.25 mmol/L solution was prepared by diluting the test compound (10 mmol/L DMSO solution, 5 μL) with an aqueous 50% acetonitrile solution (195 μL).
(§9) 20 μL was collected immediately after the start and the reaction was stopped by the addition to 180 μL of acetonitrile that contained an internal standard (warfarin). 20 μL of this solution was stirred with 180 μL of an aqueous 50% acetonitrile solution on a filter plate for protein depletion followed by suction filtration, and the filtrate was used as the standard sample.
(§10) The previously indicated reaction solution was incubated for 15 minutes at 37° C., and 20 μL was then added to 180 μL cold acetonitrile (contained the internal standard warfarin) to stop the reaction. 20 μL of this was stirred with 180 μL of an aqueous 50% acetonitrile solution on a filter plate for protein depletion followed by suction filtration, and the filtrate was used as the standard sample.

[6] = Stability in the human liver microsome; conditions: 0.5 mg/mL microsomes, NADPH, 15 minutes at 37° C.
Method: as §7, §8, §9, §10

Chain of Human CYP2C19 (P33261 whole entry): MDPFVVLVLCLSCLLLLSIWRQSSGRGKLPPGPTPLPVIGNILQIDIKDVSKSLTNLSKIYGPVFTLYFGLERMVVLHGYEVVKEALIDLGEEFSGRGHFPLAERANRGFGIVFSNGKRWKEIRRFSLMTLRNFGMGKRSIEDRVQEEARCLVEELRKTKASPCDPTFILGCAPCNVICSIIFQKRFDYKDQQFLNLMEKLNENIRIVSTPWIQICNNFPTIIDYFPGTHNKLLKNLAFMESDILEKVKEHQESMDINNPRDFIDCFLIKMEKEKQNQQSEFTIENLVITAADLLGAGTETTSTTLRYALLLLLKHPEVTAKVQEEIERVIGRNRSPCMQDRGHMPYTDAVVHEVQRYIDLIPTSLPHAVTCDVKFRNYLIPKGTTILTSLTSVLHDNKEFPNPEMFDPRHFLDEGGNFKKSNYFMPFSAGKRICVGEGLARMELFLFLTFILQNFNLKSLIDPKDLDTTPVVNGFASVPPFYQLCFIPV
Chain of Btk (Q06187 whole entry): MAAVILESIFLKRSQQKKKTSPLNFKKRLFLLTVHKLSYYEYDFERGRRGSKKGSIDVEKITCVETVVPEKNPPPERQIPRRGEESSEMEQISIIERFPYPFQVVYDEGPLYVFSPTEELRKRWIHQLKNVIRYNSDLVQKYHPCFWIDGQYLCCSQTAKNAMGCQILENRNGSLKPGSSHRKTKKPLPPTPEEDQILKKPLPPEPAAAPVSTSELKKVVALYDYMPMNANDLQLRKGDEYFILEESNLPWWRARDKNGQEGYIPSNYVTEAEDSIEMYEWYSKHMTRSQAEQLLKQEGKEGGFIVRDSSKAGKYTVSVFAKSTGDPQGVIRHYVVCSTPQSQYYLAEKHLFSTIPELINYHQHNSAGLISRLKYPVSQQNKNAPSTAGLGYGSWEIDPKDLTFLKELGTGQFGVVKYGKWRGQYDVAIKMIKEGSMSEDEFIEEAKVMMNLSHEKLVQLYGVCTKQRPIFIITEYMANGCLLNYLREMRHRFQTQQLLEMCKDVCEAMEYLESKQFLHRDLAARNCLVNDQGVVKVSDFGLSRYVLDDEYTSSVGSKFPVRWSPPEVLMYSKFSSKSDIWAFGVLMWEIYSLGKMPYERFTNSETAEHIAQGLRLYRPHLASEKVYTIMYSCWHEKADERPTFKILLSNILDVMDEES
Chain of Human CYP2C8 (P10632 whole entry): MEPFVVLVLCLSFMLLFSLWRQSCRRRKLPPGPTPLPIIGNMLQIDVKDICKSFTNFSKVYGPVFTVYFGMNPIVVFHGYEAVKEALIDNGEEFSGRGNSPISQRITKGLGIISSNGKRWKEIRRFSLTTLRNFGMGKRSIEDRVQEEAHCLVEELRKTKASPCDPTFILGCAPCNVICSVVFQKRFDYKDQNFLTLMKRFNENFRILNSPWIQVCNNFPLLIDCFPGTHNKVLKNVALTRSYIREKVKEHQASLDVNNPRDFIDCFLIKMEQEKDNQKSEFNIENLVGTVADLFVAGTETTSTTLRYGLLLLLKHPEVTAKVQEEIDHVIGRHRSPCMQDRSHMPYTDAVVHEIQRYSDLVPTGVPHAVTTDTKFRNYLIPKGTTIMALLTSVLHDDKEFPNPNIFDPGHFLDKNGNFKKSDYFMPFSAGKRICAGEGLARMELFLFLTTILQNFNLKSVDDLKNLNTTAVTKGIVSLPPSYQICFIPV
Chain of LynA (P07948 whole entry): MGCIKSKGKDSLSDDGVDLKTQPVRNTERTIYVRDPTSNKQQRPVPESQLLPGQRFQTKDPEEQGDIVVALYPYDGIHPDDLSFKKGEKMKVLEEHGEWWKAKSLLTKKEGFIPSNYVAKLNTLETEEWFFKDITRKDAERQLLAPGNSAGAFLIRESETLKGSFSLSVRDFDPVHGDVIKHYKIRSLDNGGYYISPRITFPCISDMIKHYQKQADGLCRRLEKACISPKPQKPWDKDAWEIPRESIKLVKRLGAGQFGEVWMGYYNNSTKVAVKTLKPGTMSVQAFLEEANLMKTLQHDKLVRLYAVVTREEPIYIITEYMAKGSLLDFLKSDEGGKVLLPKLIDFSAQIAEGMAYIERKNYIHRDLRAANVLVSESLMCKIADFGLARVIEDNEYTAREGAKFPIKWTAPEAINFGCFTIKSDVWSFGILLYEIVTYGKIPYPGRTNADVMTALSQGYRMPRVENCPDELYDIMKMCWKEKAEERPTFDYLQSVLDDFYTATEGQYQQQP
Chain of Fyn (P06241 whole entry): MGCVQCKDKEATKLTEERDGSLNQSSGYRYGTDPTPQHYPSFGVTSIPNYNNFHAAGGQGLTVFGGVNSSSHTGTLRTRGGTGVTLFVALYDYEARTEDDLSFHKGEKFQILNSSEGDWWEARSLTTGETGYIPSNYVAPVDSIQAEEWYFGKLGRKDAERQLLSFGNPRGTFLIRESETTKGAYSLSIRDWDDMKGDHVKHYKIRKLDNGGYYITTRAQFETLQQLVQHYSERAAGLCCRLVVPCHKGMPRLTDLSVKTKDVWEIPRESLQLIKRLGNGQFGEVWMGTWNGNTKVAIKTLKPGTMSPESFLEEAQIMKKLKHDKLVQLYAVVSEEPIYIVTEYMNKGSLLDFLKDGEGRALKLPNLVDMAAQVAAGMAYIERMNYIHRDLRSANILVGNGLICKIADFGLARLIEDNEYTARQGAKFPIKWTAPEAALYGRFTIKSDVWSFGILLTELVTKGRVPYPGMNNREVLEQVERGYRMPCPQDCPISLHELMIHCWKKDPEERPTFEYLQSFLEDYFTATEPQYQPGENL
Chain of Lck (P06239 whole entry): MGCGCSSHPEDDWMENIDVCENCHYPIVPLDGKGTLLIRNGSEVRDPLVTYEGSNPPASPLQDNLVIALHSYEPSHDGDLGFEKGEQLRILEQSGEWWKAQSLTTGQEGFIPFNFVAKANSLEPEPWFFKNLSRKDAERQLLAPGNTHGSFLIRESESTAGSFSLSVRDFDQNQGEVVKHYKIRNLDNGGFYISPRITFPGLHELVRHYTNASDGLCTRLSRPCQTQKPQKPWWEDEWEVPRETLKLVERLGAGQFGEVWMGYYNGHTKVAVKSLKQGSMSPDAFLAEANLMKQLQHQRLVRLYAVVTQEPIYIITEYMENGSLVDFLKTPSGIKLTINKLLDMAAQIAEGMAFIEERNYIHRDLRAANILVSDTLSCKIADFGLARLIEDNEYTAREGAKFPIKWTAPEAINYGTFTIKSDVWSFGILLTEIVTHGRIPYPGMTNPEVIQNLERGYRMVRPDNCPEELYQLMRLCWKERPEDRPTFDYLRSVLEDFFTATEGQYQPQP

IC50 (Human CYP2C8)	Lck[IC50]/Btk[IC50] (Lck)	LynA[IC50]/Btk[IC50] (LynA)	IC50 (Btk)	IC50 (Human CYP2C19)	Fyn[IC50]/Btk[IC50] (Fyn)	IC50 (Human liver cells [3])	Residual ratio (%) in the rat liver microsome [5]	Residual ratio (%) in the human liver microsome [6]	SMILES	IC50 [1]	IC50 [2]	IC50 (Human liver cells [4])
> 10 µM	19	143	0.014 µM	> 10 µM	236				CN(C)C/C=C/C(=O)N1CC[C@@H](n2c(=O)n(-c3ccc(Oc4ccccc4)cc3)c3c(N)ncnc32)C1 [Example 11(3), 6-amino-9-{(3R)-1-[(2E)-4-(dimethylamino)-2-butenoyl]-3-pyrrolidinyl}-7-(4-phenoxyphenyl)-7,9-dihydro-8H-purin-8-one]	> 10 µM	0.032 µM	
> 10 µM				> 10 µM		200 µM			CC#CC(=O)N1CC[C@@H](n2c(=O)n(-c3ccc(Oc4ccccc4)cc3)c3c(N)ncnc32)C1 [Example 19(2), 6-amino-9-[(3R)-1-(2-butynoyl)-3-pyrrolidinyl]-7-(4-phenoxyphenyl)-7,9-dihydro-8H-purin-8-one]	> 10 µM	0.061 µM	135 µM
				5.6 µM		39 µM			C=CC(=O)N1CCC[C@@H](n2nc(-c3ccc(Oc4ccccc4)cc3)c3c(N)ncnc32)C1 [Comparative compound A, reference compound]			78 µM
> 10 µM	220	1767	0.004 µM	> 10 µM	2500				C=CC(=O)N1CCC(Cn2c(=O)n(-c3ccc(Oc4ccccc4)cc3)c3c(N)ncnc32)CC1 [Example 8(14), 9-[(1-acryloyl-4-piperidinyl)methyl]-6-amino-7-(4-phenoxyphenyl)-7,9-dihydro-8H-purin-8-one]	> 10 µM	0.023 µM	
			0.011 µM						CC#CC(=O)N1CC[C@@H](n2c(=O)n(-c3ccc(C(=O)c4ccccc4)cc3)c3c(N)ncnc32)C1 [Example 19(40), 6-amino-7-(4-benzoylphenyl)-9-[(3R)-1-(2-butynoyl)-3-pyrrolidinyl]-7,9-dihydro-8H-purin-8-one]			
						347 µM	88.5%	100%	CN(C)C/C=C/C(=O)N1CCC(n2c(=O)n(-c3ccc(Oc4ccccc4)cc3)c3c(N)ncnc32)C1 (centres unmarked) [Example 11(24), 6-amino-9-{1-[(2E)-4-(dimethylamino)-2-butenoyl]-3-pyrrolidinyl}-7-(4-phenoxyphenyl)-7,9-dihydro-8H-purin-8-one]			213 µM
						181 µM			CC#CC(=O)N1CCC(n2c(=O)n(-c3ccc(Oc4ccccc4)cc3)c3c(N)ncnc32)C1 (centres unmarked) [Example 19(9), 6-amino-9-[1-(2-butynoyl)-3-pyrrolidinyl]-7-(4-phenoxyphenyl)-7,9-dihydro-8H-purin-8-one]			97 µM
6.9 µM				8.1 µM		< 6.25 µM	50.6%	55.9%	C#CC(=O)N1CCC(n2nc(-c3ccc(Oc4ccccc4)cc3)c3c(N)ncnc32)C1 (centres unmarked) [Comparative compound B, reference compound]			< 6.25 µM
